Laboratory results from PubChem BioAssay AID2060613 (Molecular Pharmacology Branch, DTP, NCI, 2025).

Tested on: 233499-124-R-J3-PDC complex spheroid viability
Assay: Anticancer human tumor 233499-124-R-J3-PDC patient-derived colon adenocarcinoma cell line growth inhibition [CLK]
Conditions: for IC50: curve of first compound; for viability, T/C: stronger effect = lower value
Outline: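 Patient-derived tumor cells grown as complex spheroids with HUVEC endothelial cells and mesenchymal stem cells, treated with drug combinations. Concentrations descend in half-log steps from near clinical Cmax, or from 10 microM if Cmax unknown.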
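Further: spheroids exposed to the drug combinations for seven days.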
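Wherever viability, T/C is given: percent viability relative to DMSO vehicle control wells taken as 100%.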

With COc1ccc([C@@H](O)c2cc(-c3ncnc4cc(N5CCOCC5)ccc34)c(F)cc2Cl)nn1 + CNC(=O)c1ccc(Nc2nc(OC3CCCC3)c3c(-c4ccc5nc(C)oc5c4)c[nH]c3n2)c(OC)c1 the IC50 (second compound 0.0316 µM) was greater than 10 µM, the IC50 (second compound 0.1 µM) was greater than 10 µM and the IC50 (second compound 0.316 µM) was greater than 10 µM. It also gave an IC50 (second compound 1 µM) of 1.51 µM, an IC50 (second compound 3.16 µM) of 2.68 µM and an IC50 (second compound 10 µM) of 0.118 µM. For the same compound, the viability, T/C (second compound 0.0316 µM, first compound 0.0316 µM) was 94.7%, the viability, T/C (second compound 0.0316 µM, first compound 0.1 µM) was 89.6% and the viability, T/C (second compound 0.0316 µM, first compound 0.316 µM) was 86.6%. It also gave a viability, T/C (second compound 0.0316 µM, first compound 1 µM) of 97%, a viability, T/C (second compound 0.0316 µM, first compound 3.16 µM) of 81.1% and a viability, T/C (second compound 0.0316 µM, first compound 10 µM) of 52.8%. The viability, T/C (second compound 0.1 µM, first compound 0.0316 µM) was 54.9%, the viability, T/C (second compound 0.1 µM, first compound 0.1 µM) was 65.2% and the viability, T/C (second compound 0.1 µM, first compound 0.316 µM) was 67.8%. For the same compound, the viability, T/C (second compound 0.1 µM, first compound 1 µM) was 55.8%, the viability, T/C (second compound 0.1 µM, first compound 3.16 µM) was 65.5% and the viability, T/C (second compound 0.1 µM, first compound 10 µM) was 63.8%. The viability, T/C (second compound 0.316 µM, first compound 0.0316 µM) was 68.4%, the viability, T/C (second compound 0.316 µM, first compound 0.1 µM) was 52.1% and the viability, T/C (second compound 0.316 µM, first compound 0.316 µM) was 57%. For the same compound, the viability, T/C (second compound 0.316 µM, first compound 1 µM) was 50.2%, the viability, T/C (second compound 0.316 µM, first compound 3.16 µM) was 69.4% and the viability, T/C (second compound 0.316 µM, first compound 10 µM) was 41.3%. It also gave a viability, T/C (second compound 1 µM, first compound 0.0316 µM) of 84.6%, a viability, T/C (second compound 1 µM, first compound 0.1 µM) of 64% and a viability, T/C (second compound 1 µM, first compound 0.316 µM) of 64.6%. The viability, T/C (second compound 1 µM, first compound 1 µM) was 51.1%, the viability, T/C (second compound 1 µM, first compound 3.16 µM) was 48.4% and the viability, T/C (second compound 1 µM, first compound 10 µM) was 37.6%. For the same compound, the viability, T/C (second compound 3.16 µM, first compound 0.0316 µM) was 72.8%, the viability, T/C (second compound 3.16 µM, first compound 0.1 µM) was 68.9% and the viability, T/C (second compound 3.16 µM, first compound 0.316 µM) was 37.1%. For the same compound, the viability, T/C (second compound 3.16 µM, first compound 1 µM) was 55.2%, the viability, T/C (second compound 3.16 µM, first compound 3.16 µM) was 65.3% and the viability, T/C (second compound 3.16 µM, first compound 10 µM) was 39%. It also gave a viability, T/C (second compound 10 µM, first compound 0.0316 µM) of 55.3%, a viability, T/C (second compound 10 µM, first compound 0.1 µM) of 49.2% and a viability, T/C (second compound 10 µM, first compound 0.316 µM) of 43.7%. The viability, T/C (second compound 10 µM, first compound 1 µM) was 46.4%, the viability, T/C (second compound 10 µM, first compound 3.16 µM) was 47.7% and the viability, T/C (second compound 10 µM, first compound 10 µM) was 38.9%.
